Consider 13 compounds from article PMC10178127, “Immunomodulatory Effects of the Pea Defensin Psd1 in the Caco-2/Immune Cells Co-Culture upon Candida albicans Infection” (International Journal of Molecular Sciences, 2023).

Values after ≈ are worked out from the molar mass of the structure shown. Like-named read-outs stand apart in the source and are kept apart here. *1 amine or outer side, *2 acyl side, *3 side chain or, on linkers, in order; H or OH if unused. Where a SMILES comes first, the peptide text is derived from it. Bridges are numbered along the chain shown (N, C = ends). [ ]: non-standard residue; d: D form. The star is where a group is joined. hTyr(3S-OH,4S-OH,3'-OSO3H) = N[C@H](C(=O)O)[C@H](O)[C@@H](O)c1ccc(O)c(OS(=O)(=O)O)c1; pTerphenylCO(4''-OnC5H11) = CCCCCOc1ccc(-c2ccc(-c3ccc(C(=O)*)cc3)cc2)cc1; Orn(4R-OH,5R-OH) = O=C([C@H](C[C@@H](O)[C@@H](O)N[*:3])N[*:1])[*:2]; hTyr(3S-OH,4S-OH) = N[C@H](C(=O)O)[C@H](O)[C@@H](O)c1ccc(O)cc1; Pro(3S-OH,4S-Me) = C[C@H]1CN[C@H](C(=O)O)[C@H]1O; X1 = CCCCCOc1ccc(-c2cc(-c3ccc(C(=O)*)cc3)no2)cc1; Gln(3R-OH) = NC(=O)C[C@@H](O)[C@H](N)C(=O)O; Hyp = O=C(O)[C@@H]1C[C@@H](O)CN1 Where only a bound is given, the exact number is not on record here.

The test system of data set [1] is Candida albicans v47a3. The experiment in a line: Sensitivity to conventional antimycotics, broth dilution method. In kind it is cell-based. An excerpt:
The clinical isolate of Candida albicans (v47a3) was collected from the patient with human immunodeficiency virus (HIV) infection and mucosal candidiasis and provided by G.N. Gabrichevsky Research Institute for Epidemiology and Microbiology (Moscow, Russia). This strain was susceptible to conventional antifungal agents except for a slight increase in the minimal inhibitory concentrations for triazole derivatives as was shown using the broth dilution method according to [31] (Supporting Materials, Tables S2 and S3). Strain stock was kept at −70 °C in 10% non-fat milk with 10% glycerol. Melittin (>98% pure) synthesized using a standard solid-phase method was provided by Dr. Sergey V. Sychev in M.M. Shemyakin and Yu.A. Ovchinnikov Institute of Bioorganic Chemistry of the Russian Academy of Sciences (Moscow, Russia).
Background: Broth dilution looks for growth in wells or tubes with falling amounts of substance.

Data set [2] deals with human peripheral blood mononuclear cells (PBMCs). In words: Resazurin-based cell cytotoxicity assay. Particulars: PBMCs, 24 h, read-out: concentration inducing 50% cell death. On the procedure:
The cytotoxic properties of the pea defensin Psd1 were investigated by resazurin-based cell cytotoxicity assay as previously described. In brief, PBMCs were seeded in 96-well plates at 2 × 10^6 cells per well in RPMI-1640 supplemented with 10% FBS and kept in a CO2 incubator for 24 h. After this, serial two-fold dilutions of defensin in a complete culture medium were added to the wells at final concentrations from 0.2 to 50 μM and the plates were incubated for 24 h. Resazurin (Sigma) was added at a final concentration of 70 µM, and the plates were incubated overnight (16–18 h). Fluorescent resorufin was registered using a 535/595 filter at PlateReader AF2200 (Eppendorf). Untreated cells were used as negative controls. Non-ionogenic detergent Triton X-100 and membrane-active peptide melittin from honeybee venom were used as positive controls. The cell viability was calculated according to the following equation: cell viability (%) = (Fsample/Fcontrol) × 100%. Cell lysis was monitored with an Olympus CKX41 microscope.
In general terms: Alamar Blue is a resazurin reagent that responds to reducing activity.

Data set [3] has as its system Caco-2 cells. The settings on record: known model substrates of efflux pumps; no reference given; cited from earlier work.
The mark [4] stands for this setting: V47A3, MIC = 50% growth inhibition, broth dilution according to EUCAST E.DEF 7.3.2, read-out: MICs.

For `CCC(C)n1ncn(-c2ccc(N3CCN(c4ccc(OCC5COC(Cn6cncn6)(c6ccc(Cl)cc6Cl)O5)cc4)CC3)cc2)c1=O` (stereo not shown) [Itraconazole], in data set [1] (setting [4]), the MIC is 0.12 µg/mL (≈ 0.17 µM). As for `CCCCCOc1ccc(-c2ccc(-c3ccc(C(=O)N[C@H]4C[C@@H](O)[C@@H](O)NC(=O)[C@@H]5[C@@H](O)[C@@H](C)CN5C(=O)[C@H]([C@@H](C)O)NC(=O)[C@H]([C@H](O)[C@@H](O)c5ccc(O)cc5)NC(=O)[C@@H]5C[C@@H](O)CN5C(=O)[C@H]([C@@H](C)O)NC4=O)cc3)cc2)cc1` [Anidulafungin] ({pTerphenylCO(4''-OnC5H11)}-[Orn(4R-OH,5R-OH)]T[Hyp][hTyr(3S-OH,4S-OH)]T[Pro(3S-OH,4S-Me)]; lactam 1-C), the MIC in data set [1] (V47A3, read-out: MICs) worked out at 0.03 µg/mL (≈ 0.0263 µM). Regarding `C[C@@H](c1ncncc1F)[C@](O)(Cn1cncn1)c1ccc(F)cc1F` [Voriconazole], in data set [1] (setting [4]), the MIC was determined as 0.5 µg/mL (≈ 1.43 µM). For `Nc1[nH]c(=O)ncc1F` [Flucytosine], the MIC in data set [1] (setting [4]) is not above 0.06 µg/mL. On to melittin [reference compound], for which the IC50 in data set [2] amounted to 6.25 µM. Regarding `C[C@H]1O[C@@H](O[C@H]2[C@@H](O)C[C@H](O[C@H]3[C@@H](O)C[C@H](O[C@H]4CC[C@@]5(C)[C@H](CC[C@@H]6[C@@H]5C[C@@H](O)[C@]5(C)[C@@H](C7=CC(=O)OC7)CC[C@]65O)C4)O[C@@H]3C)O[C@@H]2C)C[C@H](O)[C@@H]1O` [digoxin], the “efflux ratio (ER)” value in data set [3] is given as more than 10. Regarding `O=C1c2c(O)ccc(O)c2C(=O)c2c(NCCNCCO)ccc(NCCNCCO)c21` [mitoxantrone], in data set [3], the “efflux ratio (ER)” value is given as more than 10.

On to `CC[C@]1(O)C[C@@H]2CN(CCc3c([nH]c4ccccc34)[C@@](C(=O)OC)(c3cc4c(cc3OC)N(C)[C@H]3[C@@](O)(C(=O)OC)[C@H](OC(C)=O)[C@]5(CC)C=CCN6CC[C@]43[C@@H]65)C2)C1` [vinblastine], for which the “efflux ratio (ER)” value in data set [3] is reported as more than 10. For `CCCCCOc1ccc(-c2cc(-c3ccc(C(=O)N[C@H]4C[C@@H](O)[C@@H](O)NC(=O)[C@@H]5[C@@H](O)[C@@H](C)CN5C(=O)[C@H]([C@H](O)CC(N)=O)NC(=O)[C@H]([C@H](O)[C@@H](O)c5ccc(O)c(OS(=O)(=O)O)c5)NC(=O)[C@@H]5C[C@@H](O)CN5C(=O)[C@H]([C@@H](C)O)NC4=O)cc3)no2)cc1` [Micafungin] (X1-[Orn(4R-OH,5R-OH)]T[Hyp][hTyr(3S-OH,4S-OH,3'-OSO3H)][Gln(3R-OH)][Pro(3S-OH,4S-Me)]; lactam 1-C), the MIC in data set [1] (V47A3, read-out: MICs) amounted to 0.008 µg/mL (≈ 0.0063 µM). As for `OC(Cn1cncn1)(Cn1cncn1)c1ccc(F)cc1F` [Fluconazole], the MIC in data set [1] (setting [4]) amounted to 8 µg/mL (≈ 26.1 µM). For `C[C@@H]1[C@H](O)[C@@H](C)/C=C/C=C/C=C/C=C/C=C/C=C/C=C/[C@H](O[C@@H]2O[C@H](C)[C@@H](O)[C@H](N)[C@@H]2O)C[C@@H]2O[C@](O)(C[C@@H](O)C[C@@H](O)[C@H](O)CC[C@@H](O)C[C@@H](O)CC(=O)O[C@H]1C)C[C@H](O)[C@H]2C(=O)O` [Amphotericin B], the MIC in data set [1] (V47A3, MIC = >90% inhibition of fungal growth, broth dilution according to EUCAST E.DEF 7.3.2, read-out: MICs) came out at 0.5 µg/mL (≈ 0.541 µM).

On to `CC[C@H](C)C[C@H](C)CCCCCCCCC(=O)N[C@H]1C[C@@H](O)[C@@H](NCCN)NC(=O)[C@@H]2[C@@H](O)CCN2C(=O)[C@H]([C@H](O)CCN)NC(=O)[C@H]([C@H](O)[C@@H](O)c2ccc(O)cc2)NC(=O)[C@@H]2C[C@@H](O)CN2C(=O)[C@H]([C@@H](C)O)NC1=O` [Caspofungin], for which, in data set [1] (V47A3, read-out: MICs), the MIC stood at 0.06 µg/mL (≈ 0.0549 µM). With `CC[C@@H]([C@H](C)O)n1ncn(-c2ccc(N3CCN(c4ccc(OC[C@@H]5CO[C@@](Cn6cncn6)(c6ccc(F)cc6F)C5)cc4)CC3)cc2)c1=O` [Posaconazole], the MIC in data set [1] (setting [4]) turned out to be 0.12 µg/mL (≈ 0.171 µM).
